{
  "source": "patent EP0150892A2",
  "about": "“Substituted alkylidene imidazoles” (G.D. Searle & Co., priority 1984, dated 1985)",
  "molecular_target": "T1, thromboxane synthetase (Cavia porcellus, UniProt H0UT36)",
  "T1 construct": "from tissue; host or cells: citrated whole blood (platelets) of albino male Dunkin-Hartley guinea pigs (printed 'Dunkin-Bartley') dosed orally",
  "T1 sequence (H0UT36 1-533)": "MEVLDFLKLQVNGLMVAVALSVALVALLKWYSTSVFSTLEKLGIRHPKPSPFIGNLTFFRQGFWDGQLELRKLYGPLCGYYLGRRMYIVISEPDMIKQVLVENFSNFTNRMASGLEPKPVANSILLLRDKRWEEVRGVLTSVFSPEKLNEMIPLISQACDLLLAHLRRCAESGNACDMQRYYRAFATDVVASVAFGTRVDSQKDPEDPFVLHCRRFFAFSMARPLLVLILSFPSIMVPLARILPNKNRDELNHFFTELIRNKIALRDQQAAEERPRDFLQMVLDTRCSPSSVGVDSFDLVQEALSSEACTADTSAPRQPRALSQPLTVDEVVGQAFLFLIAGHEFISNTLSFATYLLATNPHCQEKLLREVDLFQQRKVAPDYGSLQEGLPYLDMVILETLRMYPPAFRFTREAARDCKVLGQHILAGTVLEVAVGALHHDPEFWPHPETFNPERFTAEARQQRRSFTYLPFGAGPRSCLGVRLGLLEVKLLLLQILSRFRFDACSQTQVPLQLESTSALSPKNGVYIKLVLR",
  "test": "Whole blood aggregation and thromboxane formation in vivo: guinea pig (plasma TXB2 by radioimmunoassay after oral dosing)",
  "conditions": "plasma TXB2 in collagen-stimulated citrated whole blood of guinea pigs dosed orally, versus vehicle controls; normalized to platelet count; dose not given",
  "data": [
    {"smiles": "CCOC(=O)c1ccc(/C=C(/COCc2ccc(OC)cc2)Cn2ccnc2)c(OC)c1", "note": "(single isomer, unassigned) [11 (E-isomer), ethyl 4-[3-(1H-imidazol-1-yl)-2-[[(4-methoxyphenyl]methoxy]methyl]-lE-propenyl]-3-methoxybenzoate]", "values": [
      {"measurement": "% INHIBITION", "value": -36.0, "unit": "%"}
    ]}
  ]
}
